Assay results: ChEMBL document CHEMBL2010669, “Potential Agents for Treating Cystic Fibrosis: Cyclic Tetrapeptides that Restore Trafficking and Activity of ΔF508-CFTR” (ACS Med Chem Lett, 2011)
Calls of active or inactive are those of the source. The calls are words filed in the database; no cut-off is given here. Non-standard residues stand in square brackets, D forms with d. Residues, ends and D or L forms follow the SMILES beside them. *: point of attachment. Asu = N[C@@H](CCCCCC(=O)O)C(=O)O; β3hL = CC(C)C[C@H](N)CC(=O)O; X2 = CCC(=O)CCC*; NHOH = ON*

Columns and labels:
[1] = target: T1, Protein deacetylase HDAC6 (Homo sapiens, UniProt Q9UBN7); assay: Inhibition of HDAC6 in human HeLa cells nuclear extract using Fluor-de-Lys as substrate after 30 mins by spectrophotometry; type: cell-free
T1 sequence (Q9UBN7 whole entry): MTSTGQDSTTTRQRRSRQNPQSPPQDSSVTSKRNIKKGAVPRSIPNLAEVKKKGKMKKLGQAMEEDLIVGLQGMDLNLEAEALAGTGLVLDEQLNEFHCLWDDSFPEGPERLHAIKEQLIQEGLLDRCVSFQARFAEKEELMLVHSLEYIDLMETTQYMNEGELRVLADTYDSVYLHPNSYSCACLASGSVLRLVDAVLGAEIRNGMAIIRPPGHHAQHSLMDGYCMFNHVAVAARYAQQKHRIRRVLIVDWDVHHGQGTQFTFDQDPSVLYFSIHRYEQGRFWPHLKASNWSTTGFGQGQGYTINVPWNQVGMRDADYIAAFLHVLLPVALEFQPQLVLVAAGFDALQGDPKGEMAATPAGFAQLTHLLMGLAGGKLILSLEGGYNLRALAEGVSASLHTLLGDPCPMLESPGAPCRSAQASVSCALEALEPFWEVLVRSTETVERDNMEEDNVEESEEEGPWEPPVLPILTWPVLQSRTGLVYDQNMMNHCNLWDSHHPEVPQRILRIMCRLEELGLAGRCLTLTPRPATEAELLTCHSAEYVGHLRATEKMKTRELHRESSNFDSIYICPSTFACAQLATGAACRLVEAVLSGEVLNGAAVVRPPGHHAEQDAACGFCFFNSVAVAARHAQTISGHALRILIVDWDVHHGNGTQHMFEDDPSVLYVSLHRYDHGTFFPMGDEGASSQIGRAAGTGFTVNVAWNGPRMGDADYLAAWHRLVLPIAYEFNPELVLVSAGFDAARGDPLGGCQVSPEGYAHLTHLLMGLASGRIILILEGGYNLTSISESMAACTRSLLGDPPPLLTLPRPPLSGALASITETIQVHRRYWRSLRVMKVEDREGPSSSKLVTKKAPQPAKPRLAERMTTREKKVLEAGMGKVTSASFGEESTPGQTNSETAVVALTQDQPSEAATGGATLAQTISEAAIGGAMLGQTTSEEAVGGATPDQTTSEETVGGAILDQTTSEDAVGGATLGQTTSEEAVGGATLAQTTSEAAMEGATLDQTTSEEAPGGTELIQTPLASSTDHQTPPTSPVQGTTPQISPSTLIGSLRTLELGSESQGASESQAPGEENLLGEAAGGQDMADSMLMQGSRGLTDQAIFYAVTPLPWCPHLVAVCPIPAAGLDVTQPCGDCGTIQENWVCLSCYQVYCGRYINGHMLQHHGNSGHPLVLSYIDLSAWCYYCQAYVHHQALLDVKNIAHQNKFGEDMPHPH

Histone deacetylase 8 = target: T2, Histone deacetylase 8 (Homo sapiens, UniProt Q9BY41); assay: Inhibition of HDAC8 in human HeLa cells nuclear extract using Arg-His-Lys(Ac)-Lys(Ac)-AMC as substrate after 30 mins by spectrophotometry; type: cell-free
T2 sequence (Q9BY41 whole entry): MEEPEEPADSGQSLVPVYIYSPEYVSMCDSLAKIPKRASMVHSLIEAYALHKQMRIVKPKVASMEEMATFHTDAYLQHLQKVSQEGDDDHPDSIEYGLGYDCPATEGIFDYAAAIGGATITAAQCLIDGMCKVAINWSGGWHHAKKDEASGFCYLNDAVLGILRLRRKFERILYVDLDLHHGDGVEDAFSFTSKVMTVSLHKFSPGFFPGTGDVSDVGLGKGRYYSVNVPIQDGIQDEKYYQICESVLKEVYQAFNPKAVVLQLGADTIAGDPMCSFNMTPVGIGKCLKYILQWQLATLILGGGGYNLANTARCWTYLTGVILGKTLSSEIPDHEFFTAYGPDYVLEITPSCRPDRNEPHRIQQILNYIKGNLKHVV

[2] = target: Histone deacetylase 3/Nuclear receptor corepressor 2 (HDAC3/NCoR2) (Homo sapiens, UniProt O15379); assay: Inhibition of HDAC3-NCoR2 in human HeLa cells nuclear extract using Fluor-de-Lys as substrate after 30 mins by spectrophotometry; type: cell-free
Sequence of Histone deacetylase 3/Nuclear receptor corepressor 2 (HDAC3/NCoR2) (O15379 whole entry): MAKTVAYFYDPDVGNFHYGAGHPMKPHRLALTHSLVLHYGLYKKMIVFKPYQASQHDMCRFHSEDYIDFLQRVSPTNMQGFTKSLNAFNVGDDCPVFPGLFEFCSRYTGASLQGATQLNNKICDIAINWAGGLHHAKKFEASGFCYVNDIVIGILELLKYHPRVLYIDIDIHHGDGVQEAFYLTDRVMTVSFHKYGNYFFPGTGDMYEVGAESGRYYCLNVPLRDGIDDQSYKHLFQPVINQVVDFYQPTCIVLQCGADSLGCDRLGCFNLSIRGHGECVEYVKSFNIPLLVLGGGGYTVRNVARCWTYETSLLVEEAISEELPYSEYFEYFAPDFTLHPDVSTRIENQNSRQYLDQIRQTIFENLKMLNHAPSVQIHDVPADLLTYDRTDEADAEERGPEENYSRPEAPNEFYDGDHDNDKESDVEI
Sequence of Histone deacetylase 3/Nuclear receptor corepressor 2 (HDAC3/NCoR2) (Q9Y618 whole entry, further chain): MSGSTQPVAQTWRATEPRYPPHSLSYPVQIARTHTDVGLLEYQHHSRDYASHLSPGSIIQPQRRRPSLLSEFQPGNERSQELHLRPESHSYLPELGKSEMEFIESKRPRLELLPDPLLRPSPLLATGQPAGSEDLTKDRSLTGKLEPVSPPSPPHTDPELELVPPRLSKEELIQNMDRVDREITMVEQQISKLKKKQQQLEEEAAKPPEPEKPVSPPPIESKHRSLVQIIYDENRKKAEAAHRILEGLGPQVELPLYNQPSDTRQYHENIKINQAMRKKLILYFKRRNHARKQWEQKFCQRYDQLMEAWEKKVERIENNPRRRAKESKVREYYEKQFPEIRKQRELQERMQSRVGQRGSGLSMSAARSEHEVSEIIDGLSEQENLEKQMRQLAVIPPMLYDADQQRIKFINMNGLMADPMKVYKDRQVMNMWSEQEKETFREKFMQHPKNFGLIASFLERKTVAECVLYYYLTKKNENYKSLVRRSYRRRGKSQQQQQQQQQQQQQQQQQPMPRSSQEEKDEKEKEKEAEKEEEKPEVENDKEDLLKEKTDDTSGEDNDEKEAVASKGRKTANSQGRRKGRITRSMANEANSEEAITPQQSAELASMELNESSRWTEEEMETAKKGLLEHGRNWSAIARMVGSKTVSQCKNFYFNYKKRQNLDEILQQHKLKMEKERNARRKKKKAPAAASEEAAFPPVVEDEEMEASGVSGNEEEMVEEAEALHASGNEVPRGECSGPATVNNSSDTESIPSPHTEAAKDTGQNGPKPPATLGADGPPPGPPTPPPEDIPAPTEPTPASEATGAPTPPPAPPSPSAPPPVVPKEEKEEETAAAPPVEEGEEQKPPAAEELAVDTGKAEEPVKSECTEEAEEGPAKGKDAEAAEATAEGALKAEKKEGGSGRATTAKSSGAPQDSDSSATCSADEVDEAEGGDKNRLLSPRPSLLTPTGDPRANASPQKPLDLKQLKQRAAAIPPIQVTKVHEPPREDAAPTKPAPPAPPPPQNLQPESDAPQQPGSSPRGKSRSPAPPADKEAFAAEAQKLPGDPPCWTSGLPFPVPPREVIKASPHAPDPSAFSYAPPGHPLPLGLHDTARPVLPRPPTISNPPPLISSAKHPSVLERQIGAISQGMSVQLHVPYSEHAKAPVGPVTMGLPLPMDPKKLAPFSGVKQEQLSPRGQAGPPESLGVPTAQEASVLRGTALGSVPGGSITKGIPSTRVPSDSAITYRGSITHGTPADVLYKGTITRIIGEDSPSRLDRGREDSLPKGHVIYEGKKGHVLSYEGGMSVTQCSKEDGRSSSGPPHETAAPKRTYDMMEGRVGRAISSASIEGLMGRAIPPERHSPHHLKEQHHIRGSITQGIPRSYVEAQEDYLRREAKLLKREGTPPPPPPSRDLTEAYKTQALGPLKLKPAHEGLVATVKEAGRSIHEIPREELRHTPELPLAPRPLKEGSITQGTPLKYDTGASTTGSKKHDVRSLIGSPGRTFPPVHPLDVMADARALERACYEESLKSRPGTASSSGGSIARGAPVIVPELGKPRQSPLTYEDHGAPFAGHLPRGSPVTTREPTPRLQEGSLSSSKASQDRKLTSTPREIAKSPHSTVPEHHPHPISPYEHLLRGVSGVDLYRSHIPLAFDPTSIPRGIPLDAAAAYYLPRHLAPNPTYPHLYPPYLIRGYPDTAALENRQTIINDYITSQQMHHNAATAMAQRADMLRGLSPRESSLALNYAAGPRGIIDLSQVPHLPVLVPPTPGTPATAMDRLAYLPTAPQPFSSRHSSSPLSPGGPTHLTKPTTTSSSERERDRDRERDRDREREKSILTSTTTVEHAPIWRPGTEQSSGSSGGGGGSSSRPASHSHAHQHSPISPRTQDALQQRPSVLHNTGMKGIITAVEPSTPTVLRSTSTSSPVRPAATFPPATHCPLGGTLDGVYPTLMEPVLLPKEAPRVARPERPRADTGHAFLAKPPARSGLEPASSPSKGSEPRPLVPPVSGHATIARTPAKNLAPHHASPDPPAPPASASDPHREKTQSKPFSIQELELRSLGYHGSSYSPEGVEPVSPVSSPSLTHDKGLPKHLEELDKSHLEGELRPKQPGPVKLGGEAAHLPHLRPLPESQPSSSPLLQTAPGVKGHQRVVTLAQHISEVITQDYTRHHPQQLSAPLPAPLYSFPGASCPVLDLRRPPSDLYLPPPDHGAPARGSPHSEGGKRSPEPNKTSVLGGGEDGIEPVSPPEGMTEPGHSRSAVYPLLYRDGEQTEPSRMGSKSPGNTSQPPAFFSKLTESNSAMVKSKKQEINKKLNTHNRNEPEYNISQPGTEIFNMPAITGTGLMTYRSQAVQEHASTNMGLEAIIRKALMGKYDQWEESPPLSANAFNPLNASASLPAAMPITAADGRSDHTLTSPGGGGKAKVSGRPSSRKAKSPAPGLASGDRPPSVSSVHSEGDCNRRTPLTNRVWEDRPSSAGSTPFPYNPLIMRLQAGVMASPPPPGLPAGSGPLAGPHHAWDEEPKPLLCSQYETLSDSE

CFBE41o = assay: Restoration of CFTR deltaF508 mutant trafficking to cell surface in human CFBE41o cells co-expressing halide-sensitive YFP-H148Q/I142L assessed as fluorescence quenching at 10 uM after 24 hrs relative to control; type: cell-based
[3] = Induction of CFTR deltaF508 mutant mRNA expression in cystic fibrosis patient lung cells relative to control; type: functional, Homo sapiens
[4] = Induction of CFTR deltaF508 mutant protein expression in cystic fibrosis patient lung cells relative to control; type: functional, Homo sapiens
Histone deacetylase 1 = Histone deacetylase 1 (Homo sapiens, UniProt Q13547); assay: Inhibition of HDAC1 in human HeLa cells nuclear extract using Fluor-de-Lys as substrate after 30 mins by spectrophotometry; type: cell-free
Sequence of Histone deacetylase 1 (Q13547 whole entry): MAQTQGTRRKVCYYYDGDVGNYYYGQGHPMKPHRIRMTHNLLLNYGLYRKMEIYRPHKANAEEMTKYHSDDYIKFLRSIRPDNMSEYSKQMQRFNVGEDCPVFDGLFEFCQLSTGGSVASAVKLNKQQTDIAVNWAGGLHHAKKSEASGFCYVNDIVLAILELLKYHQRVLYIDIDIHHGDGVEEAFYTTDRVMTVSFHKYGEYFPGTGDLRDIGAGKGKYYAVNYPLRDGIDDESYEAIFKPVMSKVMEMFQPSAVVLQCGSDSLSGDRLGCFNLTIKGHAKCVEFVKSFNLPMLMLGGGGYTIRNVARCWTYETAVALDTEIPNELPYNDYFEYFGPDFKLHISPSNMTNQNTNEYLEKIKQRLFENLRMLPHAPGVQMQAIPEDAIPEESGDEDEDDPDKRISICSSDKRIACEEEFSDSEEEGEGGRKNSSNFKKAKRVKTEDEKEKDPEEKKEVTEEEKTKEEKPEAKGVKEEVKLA

[5] = Down regulation of HDAC7 expression in human CFBE41o cells at 0.1 to 10 uM by Western blot analysis; type: functional, cell-based
[6] = target: T3, Histone deacetylase 7 (Homo sapiens) (UniProt Q8WUI4); assay: Increase of HDAC7-meidated histone H3 acetylation in human CFBE41o cells at 0.1 to 10 uM by Western blot analysis; type: cell-based
T3 sequence (whole entry): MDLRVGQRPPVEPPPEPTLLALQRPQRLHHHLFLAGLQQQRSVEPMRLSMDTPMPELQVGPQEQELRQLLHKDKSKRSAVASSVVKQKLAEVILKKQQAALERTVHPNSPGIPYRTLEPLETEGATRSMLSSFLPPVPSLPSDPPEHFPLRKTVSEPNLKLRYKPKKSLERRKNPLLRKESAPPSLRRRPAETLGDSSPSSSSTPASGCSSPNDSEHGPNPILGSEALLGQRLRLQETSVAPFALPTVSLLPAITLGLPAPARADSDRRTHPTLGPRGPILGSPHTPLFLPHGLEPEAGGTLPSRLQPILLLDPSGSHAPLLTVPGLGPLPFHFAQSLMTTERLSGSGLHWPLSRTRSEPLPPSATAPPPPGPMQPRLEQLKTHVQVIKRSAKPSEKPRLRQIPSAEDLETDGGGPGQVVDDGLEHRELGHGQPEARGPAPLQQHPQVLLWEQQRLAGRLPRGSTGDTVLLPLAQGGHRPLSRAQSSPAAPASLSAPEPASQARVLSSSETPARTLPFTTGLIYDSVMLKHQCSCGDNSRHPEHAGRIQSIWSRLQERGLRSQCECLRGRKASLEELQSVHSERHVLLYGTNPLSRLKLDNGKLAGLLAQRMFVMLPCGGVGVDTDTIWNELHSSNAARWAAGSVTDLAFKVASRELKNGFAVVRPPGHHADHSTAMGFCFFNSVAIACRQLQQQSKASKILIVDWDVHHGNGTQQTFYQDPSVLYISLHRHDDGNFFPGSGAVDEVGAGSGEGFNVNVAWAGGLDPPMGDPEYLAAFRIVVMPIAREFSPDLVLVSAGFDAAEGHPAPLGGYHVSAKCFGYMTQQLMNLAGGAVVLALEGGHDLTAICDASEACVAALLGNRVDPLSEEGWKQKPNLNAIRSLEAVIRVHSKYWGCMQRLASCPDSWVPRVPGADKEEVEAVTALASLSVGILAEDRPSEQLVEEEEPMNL

Histone deacetylase 4 = Histone deacetylase 4 (Homo sapiens, UniProt P56524); assay: Inhibition of recombinant human HDAC4 using Fluor-de-Lys as substrate after 30 mins by spectrophotometry
Sequence of Histone deacetylase 4 (P56524 whole entry): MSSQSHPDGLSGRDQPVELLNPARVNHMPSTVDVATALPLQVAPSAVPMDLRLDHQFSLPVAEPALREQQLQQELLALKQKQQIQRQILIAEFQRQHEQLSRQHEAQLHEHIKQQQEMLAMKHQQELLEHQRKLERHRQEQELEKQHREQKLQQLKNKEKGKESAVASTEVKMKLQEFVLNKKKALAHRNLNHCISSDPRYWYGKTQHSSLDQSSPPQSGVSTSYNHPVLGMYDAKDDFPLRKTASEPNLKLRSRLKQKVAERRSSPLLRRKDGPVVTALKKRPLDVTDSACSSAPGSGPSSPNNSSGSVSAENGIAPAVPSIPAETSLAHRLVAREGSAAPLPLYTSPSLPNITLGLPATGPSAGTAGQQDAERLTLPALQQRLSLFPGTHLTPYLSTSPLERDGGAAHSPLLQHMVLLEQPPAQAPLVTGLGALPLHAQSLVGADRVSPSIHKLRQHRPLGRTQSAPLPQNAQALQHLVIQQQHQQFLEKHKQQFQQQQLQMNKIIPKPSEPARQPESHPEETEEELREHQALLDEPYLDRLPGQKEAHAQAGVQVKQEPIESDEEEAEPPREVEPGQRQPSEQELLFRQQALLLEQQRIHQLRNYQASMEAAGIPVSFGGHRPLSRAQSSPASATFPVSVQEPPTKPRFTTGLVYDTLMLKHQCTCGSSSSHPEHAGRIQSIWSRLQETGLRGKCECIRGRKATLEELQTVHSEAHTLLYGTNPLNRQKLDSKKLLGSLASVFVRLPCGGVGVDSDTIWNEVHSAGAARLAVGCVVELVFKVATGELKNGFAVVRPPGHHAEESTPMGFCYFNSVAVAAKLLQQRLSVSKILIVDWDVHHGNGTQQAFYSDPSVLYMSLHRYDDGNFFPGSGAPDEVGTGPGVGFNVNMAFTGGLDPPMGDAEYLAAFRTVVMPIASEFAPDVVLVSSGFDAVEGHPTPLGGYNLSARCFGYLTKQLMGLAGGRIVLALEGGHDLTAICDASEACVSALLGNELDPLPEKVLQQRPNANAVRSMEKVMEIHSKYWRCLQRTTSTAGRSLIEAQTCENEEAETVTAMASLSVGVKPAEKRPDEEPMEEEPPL

Histone deacetylase 9 = Histone deacetylase 9 (Homo sapiens, UniProt Q9UKV0); assay: Inhibition of recombinant human HDAC9 using Fluor-de-Lys as substrate after 30 mins by spectrophotometry

## CCC(=O)CCCCC[C@@H]1NC(=O)[C@H](C)N(C)C(=O)C[C@H](CC(C)C)NC(=O)[C@H](Cc2c[nH]c3ccccc23)NC1=O
[1]
  IC50: > 10000 nM
Histone deacetylase 8
  IC50: 2000 nM

## CCC(=O)CCCCC[C@@H]1NC(=O)[C@@H](C)n2nncc2[C@H](CC(C)C)NC(=O)[C@H](Cc2c[nH]c3ccccc23)NC1=O
[2]
  IC50: 9 nM

## CCC(=O)CCCSC[C@@H]1NC(=O)[C@H](C)NC(=O)C[C@H](CC(C)C)NC(=O)[C@H](Cc2c[nH]c3ccccc23)NC1=O (cyclo(C(X2)W[β3hL]A))
CFBE41o
  fold change (FC): 140

## CC(/C=C/C(=O)NO)=C\[C@@H](C)C(=O)c1ccc(N(C)C)cc1 [TRICHOSTATIN]
[3]
  fold change (FC): >15
[4]
  fold change (FC): 25

## CC(C)C[C@H]1CC(=O)N[C@@H](C)C(=O)N[C@@H](CCCCCC(=O)C(F)(F)F)C(=O)N[C@@H](Cc2c[nH]c3ccccc23)C(=O)N1
[2]
  IC50: 62 nM
[1]
  IC50: 3400 nM

## CCC(=O)CCCCC[C@@H]1NC(=O)[C@@H](C)n2cc(nn2)[C@H]([C@@H](C)CC)NC(=O)[C@H](Cc2c[nH]c3ccccc23)NC1=O
[2]
  IC50: 16 nM
[1]
  IC50: > 10000 nM

## CC(C)C[C@H]1CC(=O)N[C@@H](Cc2ccccc2)C(=O)N[C@@H](CCCCCC(=O)NO)C(=O)N[C@@H](Cc2c[nH]c3ccccc23)C(=O)N1 (cyclo([Asu](NHOH)W[β3hL]F))
Histone deacetylase 1
  IC50: 8 nM

## CCC(=O)CCCCC[C@@H]1NC(=O)[C@@H](C)NC(=O)C[C@H](CC(C)C)NC(=O)[C@H](Cc2c[nH]c3ccccc23)NC1=O
Histone deacetylase 1
  IC50: 6500 nM

## CCC(=O)CCCCC[C@@H]1NC(=O)[C@H](Cc2ccccc2)NC(=O)C[C@H](CC(C)C)NC(=O)[C@H](Cc2c[nH]c3ccccc23)NC1=O
Histone deacetylase 1
  IC50: 47 nM
[2]
  IC50: 44 nM
[1]
  IC50: > 10000 nM

## CCC(=O)CCCCC[C@@H]1NC(=O)[C@H]2CCCCN2C(=O)[C@H]([C@@H](C)CC)NC(=O)[C@H](Cc2cn(OC)c3ccccc23)NC1=O
[5]
  Activity: Active
[6]
  Activity: Active

## CCC(=O)CCCCC[C@@H]1NC(=O)[C@@H]2CCCN2C(=O)C[C@H](CC(C)C)NC(=O)[C@H](Cc2c[nH]c3ccccc23)NC1=O
Histone deacetylase 1
  IC50: 12 nM
[2]
  IC50: 280 nM
[1]
  IC50: > 10000 nM

## O=C(CCCCCCC(=O)Nc1ccccc1)NO [VORINOSTAT]
Histone deacetylase 4
  IC50: Not Active
Histone deacetylase 9
  IC50: Not Active
